Key:
[1] = Spectroscopic properties (absorbance, emission, extinction coefficient, quantum yield); format: physicochemical; details: 10 μM in DMSO
Description: Supplementary Table 9. Spectrocopic properties and purity table for CO-1 and CO-1H.
Calculated mass, experimental mass, absorbance maximum (λabs), fluorescent emission maximum (λem), extinction coefficient (ε), quantum yield (Φ), and purity. mass m/z λabs λem ε Purity […]
Absorbance and fluorescence emission data were recorded by a Synergy 4, Biotek Inc. fluorescent plate reader at 10 μM concentration in DMSO in 96-well plates. HRMS a: found mass (M-H), b: tetramethyl BODIPY was used as standard, c: purity data was calculated on the basis of the integration in HPLC trace at 254 nm.

[2] = tested on: human histone H2B (H2B-mKate2 fusion with Azi at site 16) in U-2 OS cells; assay: Histone H2B imaging in live cells (Azi incorporated in H2B-mKate2); format: cell-based; details: live U-2 OS cells, 10 μM, 37 °C
Description: The red fluorescent protein mKate2 was fused to the C terminus of human histone H2B as a red fluorescent marker. Using the in vivo unnatural amino acid (UAA) technology,[27][28] an azide-bearing UAA, p-azido-L-phenylalanine (Azi), was site-specifically incorporated at site 16 of mKate2 of the fusion protein H2B-mKate2, which was expressed in live U-2 OS cells. The cells were labelled with CO-1, washed to remove unreacted CO-1, and then imaged with laser scanning confocal microscopy.
U-2 OS cells were transfected with 1 μg DNA of each plasmid using Lipofectamine2000 in 35 mm glass bottom dishes according to the manufacturer protocol. Azi (purchased from Bachem) was added 1 h before transfection at a final concentration of 0.5 mM. Plasmid pIre-Azi3 (expressing the orthogonal amber suppressor transfer RNA (tRNA) and the E2AziRS specific for Azi) was co-transfected with plasmid pmH2B-6-mKate2-16tag in a 1:1 molar ratio. After 24 h, cells were washed three times with culture medium (DMEM with 10% FBS) (15 min each time). Growth media containing 10 μM CO-1 was then added to the dishes, and cells were incubated at 37 °C for 90 min followed by 4 times washing with growth media (30 min each time). Laser scanning confocal microscopy (Zeiss LSM 700) was used for imaging. The same conditions and settings were used for imaging control and experimental cells.
U-2 OS cells were transfected with plasmid pmH2B-6-mKate2. After 24 hours, cells were
labeled with 10 μM CO-1 for 90 minutes at 37 °C. Cells were washed to remove the unreacted
CO-1 and then imaged for mKate2 (red) and CO-1 (green) signals. Scale bar, 5 μm.
(1 picture or pasted object on this page, not shown here)

- ε [1]: 66668 M⁻¹ cm⁻¹
- λabs [1]: 490 nm
- λem [1]: 510 nm
- QY (Φ) ([1]; tetramethyl BODIPY as standard): 0.66
- Nuclear membrane permeability ([2]; 90 min): pass through nuclear membrane
SMILES: Cc1cc(C)n2c1C(CCNC(=O)CCC(=O)OCC1C3CCC#CCCC31)=C1C=CC=[N+]1[B-]2(F)F (stereo not shown) [CO-1]
- Labelling of Azi-bearing histone H2B-mKate2 ([2]; 90 min): specific labelling of histone H2B
- Labelling of wild type H2B-mKate2 (control without Azi) ([2]; 90 minutes): did not label wild type H2B-mKate2

Reference: publication PMC4915154, “Development of background-free tame fluorescent probes for intracellular live cell imaging” (Nature Communications, 2016)
